The term IC50 denotes the point on the concentration scale where inhibition reaches its midpoint.

This test deals with calcium channel (e.g., L-type, N-type, etc.) currents. As to the kind of experiment: HEK assay, whole-cell voltage clamp in transiently transfected HEK-293T/17 cells. It counts as cell-based. The note with it: whole-cell patch clamp, steady-state concentration-response. How it is done:
HEK-293T/17 cells are transiently transfected in a similar manner as described in FuGENE 6 Package Insert Version 7, April 2002, Roche Applied Science, Indianapolis, Ind. The cells are plated at 2.5×10^5 cells in 2 mL in a 6-well plate in incubator for one night and achieve a 30˜40% confluence. In a small sterile tube, add sufficient serum-free medium as diluent for FuGENE Transfection Reagent (Roche Applied Science, Indianapolis, Ind.), to a total volume of 100 μL. Add 3 μL of FuGENE 6 Reagent directly into this medium. The mixture is tapped gently to mix. 2 μg of DNA solution (0.8-2.0 μg/μL) is added to the prediluted FuGENE 6 Reagent from above. The DNA/Fugene 6 mixture is gently pipeted to mix the contents and incubated for about 15 minutes at room temperature. The complex mixture is then added to the HEK-293T/17 cells, distributing it around the well, and swirled to ensure even dispersal. The cells are returned to the incubator for 24 hrs. The transfected cells are then replated at density 2.5×10^5 in a 35 mm dish with 5 glass coverslips and grow in low serum(1%) media for 24 hrs. Coverslips with isolated cells are then transferred into chamber and calcium channel (e.g., L-type, N-type, etc.) current or other currents for counter screening are recorded from the transiently transfected HBEK-293T/17 cells. […]
On the technique in general: In patch-clamp work, channel activity is measured electrically.

Regarding `Fc1ccc(Cc2nc(Cc3nc4ccccc4[nH]3)cn2-c2ccc(Cl)cc2)cc1` [Compound 2, 2-[1-(4-Chloro-phenyl)-2-(4-fluoro-benzyl)-1H-imidazol-4-ylmethyl]-1H-benzoimidazole], the concentration for half-maximal inhibition (IC50) is 252 nM.

These data come from patent US20080242716A1, “Ion Channel Modulators” (priority 2004, published 2008).
